{"source": "patent US20080187927A1", "about": "“USING HUG1 PROMOTER AND A REPORTER GENE TO DETECT GENOTOXICITY AND GENOPROTECTION” (priority 2006, published 2008)", "key": {"SPY1101 (HUG1P-GFP)": {"test_system": "SPY1101 (HUG1P-GFP)", "text": "Yeast having a HUG1-GFP promoter/reporter construct (called SPY1101; genotype is W303 MA:Ta/a ura3-52/ura3-52 his3::hisG/his3::hisG leu2::hisG/leu2::hisG HUG1P-GFP::HIS3/HUG1P-HUG1) were derived from S. cerevisiae strain SPY810 (wild-type yeast; genotype is W303 MATa/a ura3-52/ura3-52 his3::hisG/his3::hisG/leu2::hisG/leu2::hisG) using a PCR-based gene deletion method. Longtine M, et al., “Additional modules for versatile and economical PCR-based gene deletion and modification in Saccharomyces cerevisiae,” Yeast 14:953-961 (1998), incorporated herein by reference as if set forth in its entirety. Briefly, plasmid pFA6a-GFP(S65T)-His3MX6 (kindly provided by John Pringle at The University of North Carolina at Chapel Hill (Chapel Hill, N.C.); see also, Longtine et al., supra.), which contains GFP-S65T, was isolated from Escherichia coli DHα with a QIAprep Spin Miniprep Kit (Qiagen; Santa Clarita, Calif.).\nYeast from Example 1 (SPY1101) were exposed to the genotoxins shown in Table 2, which included alkylating agents, oxidizing agents, ribonucleotide reductase inhibitors, UV mimetic agents, glycopeptide antibiotics, quinoline-based alkaloids and ionizing radiation. Each genotoxin was added directly to a culture of SPY1101. Fresh phleomycin (Sigma) was aliquoted in water at a concentration of 20 mg/ml and stored at −20° C. until culture exposure. Likewise, CPT (Sigma) was aliquoted in dimethylsulfoxide (DMSO) at a concentration of 10 mg/ml and stored at −20° C. until culture exposure. All samples exposed to CPT were adjusted with DMSO, such that the final concentration of DMSO in the culture was 1% (v/v), regardless of CPT dose. γ-ray exposure was done using a Cs^137 source (exposure was 7 Gy/min and ended when the desired dose was reached). For all genotoxins (except γ-ray), exposure was continuous.\nAll DNA damage experiments included a minimum of three independent trials. SPY1101 were grown in rich medium (see, Sherman, supra) at 30° C. and with gentle shaking at 250 rpm to mid log-phase and then diluted to an OD600 of 0.1. After dilution, the culture was divided into 10 ml aliquots for exposure to one of the DNA damaging agents listed above. One culture aliquot was treated as a control and received no genotoxin, while the other aliquots each received one of seven different doses of the genotoxin, as listed in Table 2. In addition, SPY810 (wild-type control) were similarly treated. All cultures were then returned to 30° C. for incubation.\nOne hour after exposure, 1 ml of each culture was removed, and the OD600 was recorded to monitor culture growth. The cells were washed in PBS, re-suspended in fresh PBS to an OD600 of 0.2 and then placed in the dark on ice until flow cytometry analysis. This process was repeated every hour until eight hours had passed since the initial genotoxin exposure. The process was also repeated at twenty-four hours after initial genotoxin exposure.\nFlow cytometry analysis was conducted as follows. For each replicate, at least 10,000 cells were analyzed for fluorescence using a flow cytometer (Becton Dickinson; Franklin Lakes, N.J.), and GFP induction analysis was performed with CellQuest™ and Flow-Jo software. Surviving cells were defined as whole cells (measured with light scattering) with intact cellular membranes (measured by exclusion of propidium iodide). All surviving cells were gated and used to measure GFP expression of the population. GFP expression histograms were prepared with WinMDI (available on the world wide web), using a live/dead gate based on propidium iodide exclusion. Histograms were created using a smoothing setting of 5.\nSPY1101 were also exposed to general cell stress. All general cell stress experiments consisted of a minimum of three independent trials. SPY1101 were grown in rich medium at 30° C. and with gentle shaking at 250 rpm to mid log-phase and then diluted to an OD600 of 0.1. After dilution, the culture was divided into aliquots."}, "SPY810 (wild-type yeast)": {"test_system": "SPY810 (wild-type yeast)", "test": "Fluorescence of wild-type control yeast SPY810 after genotoxin exposure", "format": "cell-based, S. cerevisiae", "conditions": "0.01% MMS for six hours", "procedure": "In addition, SPY810 (wild-type control) were similarly treated.\nFlow cytometry analysis was conducted as follows. […] Histograms were created using a smoothing setting of 5."}, "SPY1102 (mag1Δ)": {"test_system": "SPY1102 (mag1Δ)", "test": "Viability of SPY1102 after genotoxin exposure", "format": "cell-based, S. cerevisiae", "conditions": "after four hours of exposure"}, "SPY1103 (mre11aΔ)": {"test_system": "SPY1103 (mre11aΔ)", "test": "Viability of SPY1103 after genotoxin exposure", "format": "cell-based, S. cerevisiae", "conditions": "exposed to MMS"}, "[1]": {"test_system": "SPY1102 (mag1Δ, HUG1P-GFP)", "protocol": "(§1) Briefly, two hours after exposure, 1 ml of each culture-was removed and the OD600 was recorded to monitor cell proliferation. The cells were then washed in PBS and re-suspended to an OD600 of 0.2, and placed in the dark on ice until flow cytometry analysis. This process was repeated after 4, 6 and 8 hours after exposure."}, "[2]": {"test_system": "SPY1103 (mre11aΔ, HUG1P-GFP)", "protocol": "Yeast having a MRE11 deletion (SPY1103; also called mre11aΔ) were created from SPY1101.\nas §1"}, "[3]": {"test_system": "SPY1105 (mag1Δ/mre11bΔ, HUG1P-GFP)", "protocol": "as §1"}}, "note": "Counter-ions that a name gives are not always drawn. Like-named read-outs stand apart in the source and are kept apart here.", "data": [{"compound": "C=O", "note": "[formaldehyde]", "values": [{"measurement": "dose-dependent GFP expression", "setting": "SPY1101 (HUG1P-GFP); doses of Table 2, up to 24 h", "result": "No dose-dependent induction of GFP expression"}]}, {"compound": "COS(C)(=O)=O", "note": "[MMS, methyl methanesulfonate]", "values": [{"measurement": "Relative Fluorescence", "setting": "SPY1101 (HUG1P-GFP); 0.0005% MMS (dose-response)", "result": 4}, {"measurement": "increase of fluorescence compared to untreated cells", "setting": "SPY1101 (HUG1P-GFP); 0.0005% MMS, after 6 hours", "result": 2.4, "unit": "fold"}, {"measurement": "fluorescence upregulation", "setting": "SPY1101 (HUG1P-GFP); 0.005% MMS", "result": 97, "unit": "fold"}, {"measurement": "optimum (peak) fluorescence", "setting": "SPY1101 (HUG1P-GFP); 0.01% MMS", "result": 1.48, "unit": "fold"}, {"measurement": "increase of fluorescence (minimum induction time)", "setting": "SPY1101 (HUG1P-GFP); 0.01% MMS, after 75 minutes", "result": 3, "unit": "fold"}, {"measurement": "Relative Fluorescence", "setting": "SPY1101 (HUG1P-GFP); dose 0.0005%, exposure 6 h", "result": 2.4}, {"measurement": "fluorescence of wild type control", "setting": "SPY810 (wild-type yeast)", "result": "did not fluoresce"}, {"measurement": "viability compared to SPY810 or SPY1101", "setting": "SPY1102 (mag1Δ)", "result": "less viable"}, {"measurement": "viability compared to SPY1101", "setting": "SPY1103 (mre11aΔ)", "result": "no difference in viability"}, {"measurement": "Relative Fluorescence", "setting": "[1]; 0.0005% MMS", "result": 34}, {"measurement": "peak fluorescence", "setting": "[1]; 0.005% MMS", "result": 154, "unit": "fold"}, {"measurement": "Relative Fluorescence", "setting": "[1]; dose 0.0001%, exposure 4 h", "result": 3.0}, {"measurement": "fluorescence induction at peak fluorescence", "setting": "[2]; MMS, at its peak fluorescence", "result": 49, "unit": "fold"}, {"measurement": "Relative Fluorescence", "setting": "[2]; dose 0.0005%, exposure 6 h", "result": 2.7}, {"measurement": "relative fluorescence induction", "setting": "[3]; 0.005% MMS (peak)", "result": 49, "unit": "fold"}, {"measurement": "Relative Fluorescence", "setting": "[3]; dose 0.0001%, exposure 4 h", "result": 2.2}]}, {"compound": "Cl", "note": "[HCl]", "values": [{"measurement": "maximum induction of GFP fluorescence", "setting": "SPY1101 (HUG1P-GFP); 1, 5, 10 or 15% (v/v) 1 N HCl, positive threshold >2 fold", "result": 1.5, "unit": "fold"}]}]}
